Test system: snap bean seedling diseases (Pythium spp., Rhizoctonia solani, Macrophomina phaseolina, and Fusarium spp.)
Test: Spring-planted 2013 snap bean field test
Settings: in vivo

`O.O.O=C([O-])c1ccccc1O.O=C([O-])c1ccccc1O.[Ca+2]` [calcium salicylate, calcium salicylate dihyrate] was tested, and the “Overall snap bean yield” value was “highest”, the “Seedling emergence 15 days after planting (May 8)” value was “greatest” and the healthy plant stands was “highest”.

Reference: patent publication US20160302412A1, “USES OF SALICYLIC ACID” (UNIVERSITY OF TENNESSEE RESEARCH FOUNDATION, priority 2013, published 2016)
